# Reference: patent US11414459B2 (Kinoxis Therapeutics Pty Ltd, priority 2017, dated 2022)
# Where a SMILES comes first, the peptide text is derived from it. Bridges are numbered along the chain shown (N, C = ends).
# Columns and labels:
# V1aR (V1a receptor) [1] = target: T1, V1aR (V1a receptor) (Homo sapiens, UniProt P37288); experiment: Competition radioligand binding assay, [3H]-vasopressin displacement; conditions: membranes from V1a receptor-expressing HEK293 cells, [3H]-vasopressin 2 nM
# T1 construct: expressed in transfected cells; host or cells: HEK293
# Description: (§1) Competition Radioligand Binding Assay Experimental Procedures
# (§2) Reactions were incubated for 90 min at 4 C to reach equilibrium, and terminated by rapid filtration over glass fibre filters (Whatman GF/A […]), and washing with ice-cold reaction buffer. Radioactivity was detected after soaking filters in Microscint 0 using a Microbeta2 2450 microplate-reader (Perkin Elmer).
# OXTR (OT receptor) [2] = target: T2, OXTR (OT receptor) (Homo sapiens, UniProt P30559); experiment: HTRF-IP1 accumulation assay, antagonist assessment; assay type: cell-based; set-up: expressed in transfected cells; host or cells: HEK293
# T2 sequence (P30559 1-389): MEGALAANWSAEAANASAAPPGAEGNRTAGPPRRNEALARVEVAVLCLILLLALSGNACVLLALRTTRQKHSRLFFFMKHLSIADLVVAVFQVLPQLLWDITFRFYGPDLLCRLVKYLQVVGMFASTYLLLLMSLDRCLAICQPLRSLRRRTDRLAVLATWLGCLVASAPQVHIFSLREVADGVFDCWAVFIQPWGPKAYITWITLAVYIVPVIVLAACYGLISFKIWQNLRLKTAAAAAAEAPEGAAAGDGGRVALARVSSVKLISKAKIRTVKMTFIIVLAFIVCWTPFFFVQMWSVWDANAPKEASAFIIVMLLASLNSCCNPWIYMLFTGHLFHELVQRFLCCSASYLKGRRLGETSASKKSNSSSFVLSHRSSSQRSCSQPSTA
# OXTR (OT receptor) [3] = target: T2, OXTR (OT receptor); experiment: Competition radioligand binding assay, [3H]-oxytocin displacement; set-up: expressed in transfected cells; host or cells: HEK293; conditions: membranes from OT receptor-expressing HEK293 cells, [3H]-oxytocin 10 nM
# Description: as §1, §2
# V1aR (V1a receptor) [4] = target: T1, V1aR (V1a receptor); experiment: HTRF-IP1 accumulation assay, antagonist assessment; assay type: cell-based; conditions: against EC70 concentration of vasopressin
# OXTR (OT receptor) [5] = target: T2, OXTR (OT receptor); experiment: cell-based; conditions: for Emax: read-out: Emax (% OXT)
# OXTR or V1aR receptors = experiment: Activity/selectivity at OXTR or V1aR receptors stated in words; conditions: OXTR over V1aR
# V1aR (V1a receptor) [6] = target: T1, V1aR (V1a receptor); experiment: HTRF-IP1 accumulation assay, agonist assessment; assay type: cell-based; conditions: for EC50: V1a receptor-expressing HEK293 cells, IP1 accumulation, 1 h incubation
# Description: HTRF-IP1 Accumulation Assay Experimental Procedures
# OT or V1a receptor-expressing HEK293 cells were seeded onto clear, poly-L-lysine (100 μg/mL)-coated 384 well plates at a density of 8.75×10^3 cells per well. Levels of receptor activation induced by compounds were assessed at concentrations ranging from 1 nM to 100 μM using the HTRF IP-One kit (CisBio International, Bagnolssur-Cze, France), according to manufacturers protocol. For agonist assessment, cells were incubated with compounds for 1 h prior to the addition of Ab-Cryptate and IP1-d2. The ligand concentration that induced a 50% maximal response (EC50) was used to evaluate functional effects across compounds. […] Cells were then incubated for a further 1 h, and Ab-Cryptate and IP1-d2 added.
# T1 sequence (P37288 whole entry, species assumed): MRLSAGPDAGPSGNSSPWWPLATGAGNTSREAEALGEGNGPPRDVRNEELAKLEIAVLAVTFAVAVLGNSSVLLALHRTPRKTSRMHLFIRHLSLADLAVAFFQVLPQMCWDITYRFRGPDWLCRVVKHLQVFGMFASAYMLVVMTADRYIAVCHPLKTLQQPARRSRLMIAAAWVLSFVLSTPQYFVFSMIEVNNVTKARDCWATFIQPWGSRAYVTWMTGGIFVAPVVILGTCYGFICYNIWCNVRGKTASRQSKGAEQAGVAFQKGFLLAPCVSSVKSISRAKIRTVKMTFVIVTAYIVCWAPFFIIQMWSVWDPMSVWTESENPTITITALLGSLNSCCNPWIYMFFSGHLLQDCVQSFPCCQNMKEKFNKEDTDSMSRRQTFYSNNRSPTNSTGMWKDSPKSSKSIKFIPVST
smiles,measurement,setting,value
CC[C@H](C)[C@@H]1NC(=O)[C@H](Cc2ccc(O)cc2)NC(=O)[C@@H](N)CSSC[C@@H](C(=O)N2CCC[C@H]2C(=O)N[C@@H](CC(C)C)C(N)=O)NC(=O)[C@H](CC(N)=O)NC(=O)[C@H](CCC(N)=O)NC1=O [Metabolite A] (H-CYIQNCPL-NH2; disulfide 1-6),Ki,V1aR (V1a receptor) [1],0.749 µM
same,IC50,OXTR (OT receptor) [2],> 10 µM
same,Ki,OXTR (OT receptor) [3],0.138 µM
same,IC50,V1aR (V1a receptor) [4],> 10 µM
same,EC50,OXTR (OT receptor) [5],0.274 µM
same,Emax,OXTR (OT receptor) [5],79.2%
same,selectivity and activity compared with oxytocin,OXTR or V1aR receptors,enhanced selectivity and activity
same,EC50,V1aR (V1a receptor) [6],> 10 µM
CC[C@H](C)[C@@H]1NC(=O)[C@H](Cc2ccc(O)cc2)NC(=O)[C@@H](N)CSSC[C@@H](C(=O)N2CCC[C@H]2C(N)=O)NC(=O)[C@H](CC(N)=O)NC(=O)[C@H](CCC(N)=O)NC1=O [Metabolite B] (H-CYIQNCP-NH2; disulfide 1-6),Ki,V1aR (V1a receptor) [1],0.105 µM
same,IC50,OXTR (OT receptor) [2],> 10 µM
same,Ki,OXTR (OT receptor) [3],0.0726 µM
same,IC50,V1aR (V1a receptor) [4],> 10 µM
same,EC50,OXTR (OT receptor) [5],0.11 µM
same,Emax,OXTR (OT receptor) [5],74.1%
same,selectivity and activity compared with oxytocin,OXTR or V1aR receptors,enhanced selectivity and activity
same,EC50,V1aR (V1a receptor) [6],> 10 µM
"CC[C@H](C)[C@@H]1NC(=O)[C@H](Cc2ccc(O)cc2)NC(=O)[C@@H](N)CSSC[C@@H](C(=O)N2CCC[C@H]2C(=O)N[C@@H](CC(C)C)C(=O)NCC(N)=O)NC(=O)[C@H](CC(N)=O)NC(=O)[C@H](CCC(N)=O)NC1=O [Oxytocin, reference compound]",Emax,"V1aR (V1a receptor) [6]; V1aR, relative to vasopressin",82%
